Assay results taken from patent publication US20250375526A1, “IRAK DEGRADERS AND USES THEREOF” (Kymera Therapeutics, Inc., priority 2020, published 2025).

These compounds were tested on OCI-LY10 cells (assay: CellTiter-Glo Luminescent Cell Viability Assay). Settings: Homo sapiens, 96 h, incubated 4 days, read-out: OCI-LY10 CTG IC50.
Assay type: cell-based
Method: Compound-mediated viability effect on OCI-LY10 was quantitatively determined using the CellTiter-Glo® Luminescent Cell Viability Assay kit from Promega (Catalog number G7570) following manufacturer's recommended procedures. Briefly, OCI-LY10 cells were seeded into 384 well plates (Grenier Bio-One, Catalog number 781080) with a density of 10,000 cells per well. Compounds were then added to the assay plate with final top concentration of 10 μM and 1:3 dilution series with total of 9 doses. The final DMSO concentration was normalized to 0.2%. The assay plates were incubated at 37° C. for 4 days under 5% CO2. Then the assay plate was equilibrated at room temperature for 10 minutes. To determine cell viability, 30 μL CellTiter Glo reagent was added to each well and the assay plate was centrifuged at 1000 rpm for 30 second, incubated at room temperature for 10 min, and analyzed by detecting the luminescence using a multimode plate reader (EnVision 2105, PerkinElmer). The data was then analyzed by software Prism 7.0 from GraphPad and the dose response curves were fit using a three-parameter logistic equation to calculate IC50.
The letter codes for OCI-LY10 CTG IC50 include: A (<1 μM), B (1-10 μM), C (>10 μM).

| IC50 | SMILES |
| --- | --- |
| 1 to 10 µM | CN(C[C@H]1CC[C@H](n2cc3cc(NC(=O)c4cccc(C(F)(F)F)n4)c(C(C)(C)O)cc3n2)CC1)C1CCN(c2ccn3c(N4CCC(=O)NC4=O)cnc3c2)CC1 [I-1] |
| > 10 µM | CN(C[C@H]1CC[C@H](n2cc3cc(NC(=O)c4cccc(C(F)(F)F)n4)c(C(C)(C)O)cc3n2)CC1)C1CCN(c2cccc3c(N4CCC(=O)NC4=O)cncc23)CC1 [I-7] |
| 1 to 10 µM | CC(C)(O)c1cc2nn([C@H]3CC[C@H](CN4CCC(c5ccc6c(N7CCC(=O)NC7=O)cncc6c5)CC4)CC3)cc2cc1NC(=O)c1cccc(C(F)(F)F)n1 [I-6] |

More lines, now with the values behind:

| SMILES | IC50 |
| --- | --- |
| CC(C)(O)c1cc2nn([C@H]3CC[C@H](CNCCOCCOCC#Cc4ccn5c(N6CCC(=O)NC6=O)cnc5c4)CC3)cc2cc1NC(=O)c1cccc(C(F)(F)F)n1 [I-34] | > 10 µM |
| CC(C)(O)c1cc2nn([C@H]3CC[C@H](CN4CCC(c5cccn6c(N7CCC(=O)NC7=O)cnc56)CC4)CC3)cc2cc1NC(=O)c1cccc(C(F)(F)F)n1 [I-23] | 1 to 10 µM |
| COc1cc2nn([C@H]3CC[C@H](CN4CCC(c5ccc6c(N7CCC(=O)NC7=O)cncc6c5)CC4)CC3)cc2cc1NC(=O)c1cccc(C(F)(F)F)n1 [I-17] | < 1 µM |
| CN(C[C@H]1CC[C@H](n2cc3cc(NC(=O)c4cccc(C(F)(F)F)n4)c(C(C)(C)O)cc3n2)CC1)C1CCN(c2ccc3c(N4CCC(=O)NC4=O)cncc3c2)CC1 [I-5] | 1 to 10 µM |

These compounds were tested against T1, IRAK4 (Homo sapiens, UniProt Q9NWZ3) (assay: OCI-LY10 IRAK MSD assay DC50 (IRAK4 degradation)). Settings: OCI-Ly10 cells, incubated for 4 hr, concentration of compound required to degrade 50% of protein.
T1 construct: endogenous in cells; host or cells: OCI-Ly10
T1 sequence (Q9NWZ3 1-460): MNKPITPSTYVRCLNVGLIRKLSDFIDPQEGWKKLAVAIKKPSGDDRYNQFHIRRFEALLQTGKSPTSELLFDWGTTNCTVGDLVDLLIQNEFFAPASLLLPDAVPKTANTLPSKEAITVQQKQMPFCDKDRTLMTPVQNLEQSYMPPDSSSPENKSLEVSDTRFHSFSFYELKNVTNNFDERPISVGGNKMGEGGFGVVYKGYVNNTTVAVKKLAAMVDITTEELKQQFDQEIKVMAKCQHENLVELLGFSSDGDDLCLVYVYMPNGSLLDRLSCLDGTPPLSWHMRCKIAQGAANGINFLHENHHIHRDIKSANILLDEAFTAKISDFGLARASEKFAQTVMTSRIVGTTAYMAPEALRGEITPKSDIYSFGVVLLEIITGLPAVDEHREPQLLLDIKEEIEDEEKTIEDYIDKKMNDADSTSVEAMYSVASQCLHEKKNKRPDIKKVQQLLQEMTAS
Assay type: cell-based
Method: A MSD assay is run to determine the concentration of compound required to degrade 50% of protein (DC50).
• Compounds were reconstituted to 10 mM in stock solutions. The stock solutions were diluted to 5 mM and 45 μL of each dilution was transferred to a 384 pp-plate. A 3 fold, 8-point serial dilution was performed by transferring 15 μL of compound into 30 μL DMSO using Janus. • 20 nL of each compound were added into each well of a 96-well plate (Corning3799). • OCI-Ly10 cells were seeded into the 96-well plate at 3.0*10e^5 cells/100 μL/well. • The cell plate was shaken at 720 rpm for 5 min and incubated for 4 hr. • 100 μL of cells were transferred into the 96-PCR plate and spun down at high speed for 5 mins. • The supernatant was discarded and 100 μL of RIPA lysis buffer with proteinase inhibitors was added per well. The plate was then sealed and shaken at 600 rpm and 4° C. for about 20 min. • The plate was then spun down at high speed (about 3200 g) for 30 min and then frozen in a −80° C. fridge. • A bare MSD plate (L15XA-3) was coated with 2 μg/mL of capture antibody (mouse Anti-IRAK4 antibody [2H9], ab119942) in PBS to 40 μL/well and incubated overnight at 4° C.
• The MSD coated plate was washed 3× (150 μL/well) with 1×TBST (CST #9997S). • The MSD plate was then blocked with 150 μL of blocking buffer [3% Blocker A (MSD, R93BA-4) in TBST]/well and shaken for 1 hr at RT and 600 rpm. • The MSD plate was washed 3× (150 μL/well) with 1×TBST. The sample RIPA lysates were then added to the MSD plate (50 μL/well) and shaken for 1 hr at RT and 600 rpm. • The MSD plate was washed 3× (150 μL/well) with 1×TBST and the primary detection antibody (Rabbit Anti-IRAK4 antibody [Y279], ab32511) was added to a final concentration of 1 μg/ml with 25 μL/well. The plate was then shaken for 1 hr at RT and 600 rpm. • The MSD plate was washed 3× (150 μL/well) with 1×TBST and the secondary detection antibody, SULFO-TAG anti-species antibody (Anti Rabbit Antibody (R32AB-5) MSD, R32AB-1) was added to a volume of 25 μL/well at a final concentration of 1 μg/ml. The plate was then shaken for 1 hr at RT and 600 rpm. • The MSD plate was then washed 3× (150 μL/well) with 1×TBST. • 1×MSD reading buffer was then added (150 μL/well) and the plate […].
(MSD, R92TC-2) • The MSD instrument was then read.
The remaining activity was calculated following the formula below:
• The DC50 was calculated by fitting the Curve using Xlfit (v5.3.1.3), equation 201: […]
The letter codes for IRAK4 DC50 indicate the concentration of compound required to degrade 50% of protein: A (<0.01 μM), B (0.01-0.1 μM), C (>0.1-0.2 μM), D (>0.2 μM).

| DC50 | SMILES |
| --- | --- |
| < 0.01 µM | CN(C[C@H]1CC[C@H](n2cc3cc(NC(=O)c4cccc(C(F)(F)F)n4)c(C(C)(C)O)cc3n2)CC1)C1CCN(c2ccn3c(N4CCC(=O)NC4=O)cnc3c2)CC1 [I-1] |
| < 0.01 µM | C[C@H]1CN(C[C@H]2C[C@H](n3cc(NC(=O)c4cnn5ccc(N6C[C@H]7C[C@@H]6CO7)nc45)c(C(F)F)n3)C2)CC[C@@H]1OCC#Cc1ccn2c(N3CCC(=O)NC3=O)cnc2c1 [I-59] |
| > 0.2 µM | O=C1CCN(c2cnc3cc(C4CCN(C[C@H]5C[C@H](n6cc7cc(NC(=O)c8cccc(C(F)(F)F)n8)ccc7n6)C5)CC4)ccn23)C(=O)N1 [I-85] |
| 0.01 to 0.1 µM | COc1cc2nn([C@H]3CC[C@H](CN4C5CC4CN(c4cccn6c(N7CCC(=O)NC7=O)cnc46)C5)CC3)cc2cc1NC(=O)c1cccc(C(F)(F)F)n1 [I-57] |
| > 0.2 µM | N#Cc1cnc2c(C(=O)Nc3ccc4nn([C@H]5CC[C@H](CN6CCC(c7ccn8c(N9CCC(=O)NC9=O)cnc8c7)CC6)CC5)cc4c3)cnn2c1 [I-72] |
| > 0.2 µM | COc1cc2nn([C@H]3CC[C@H](CN(C)C4CCN(c5cccn6c(N7CCC(=O)NC7=O)cnc56)CC4)CC3)cc2cc1NC(=O)c1cncc(Cl)c1 [I-88] |
| < 0.01 µM | COc1cc2nc([C@H]3CC[C@H](CN4CCC(c5cccn6c(N7CCC(=O)NC7=O)cnc56)CC4)CC3)sc2cc1NC(=O)c1cccc(C(F)(F)F)n1 [I-79] |
| < 0.01 µM | O=C1CCN(c2cnc3cc(C#CCO[C@@H]4CCN(C[C@H]5CC[C@H](n6cc(NC(=O)c7cnn8ccc(N9C[C@H]%10C[C@@H]9CO%10)nc78)c(C(F)F)n6)CC5)C[C@@H]4F)ccn23)C(=O)N1 [I-70] |
| 0.01 to 0.1 µM | COc1cc2nc([C@H]3CC[C@H](CN4CCN(c5ccn6c(N7CCC(=O)NC7=O)cnc6c5OC)CC4)CC3)sc2cc1NC(=O)c1cccc(C(F)(F)F)n1 [I-48] |

Further lines, the compound ahead of its results:

| SMILES | DC50 |
| --- | --- |
| CC(C)(O)c1cc2nn([C@H]3CC[C@H](CNCCOCCOCC#Cc4ccn5c(N6CCC(=O)NC6=O)cnc5c4)CC3)cc2cc1NC(=O)c1cccc(C(F)(F)F)n1 [I-34] | 0.01 to 0.1 µM |
| CC(C)(O)c1cc2nn([C@H]3CC[C@H](CN4CCC(c5cccn6c(N7CCC(=O)NC7=O)cnc56)CC4)CC3)cc2cc1NC(=O)c1cccc(C(F)(F)F)n1 [I-23] | < 0.01 µM |
| C[C@H]1CN(C[C@H]2CC[C@H](n3cc(NC(=O)c4cnn5ccc(N6C[C@H]7C[C@@H]6CO7)nc45)c(C(F)F)n3)CC2)CC[C@@H]1OCC#Cc1ccn2c(N3CCC(=O)NC3=O)cnc2c1 [I-63] | < 0.01 µM |
| COc1cc2nc([C@H]3CC[C@H](CN(C)C4CCN(c5ccn6c(N7CCC(=O)NC7=O)cnc6c5)CC4)CC3)sc2cc1NC(=O)c1cccc(C(F)(F)F)n1 [I-80] | 0.01 to 0.1 µM |
| C[C@@H]1CN(C[C@H]2CC[C@H](n3cc(NC(=O)c4cnn5ccc(N6C[C@H]7C[C@@H]6CO7)nc45)c(C(F)F)n3)CC2)CC[C@H]1OCC#Cc1cccn2c(N3CCC(=O)NC3=O)cnc12 [I-62] | < 0.01 µM |
| CN(C[C@H]1CC[C@H](n2cc3cc(NC(=O)c4cccc(C(F)(F)F)n4)ccc3n2)CC1)C1CCN(c2cccn3c(N4CCC(=O)NC4=O)cnc23)CC1 [I-27] | > 0.2 µM |
| O=C1CCN(c2cnc3c(C4CCN(C[C@H]5CC[C@H](n6cc7cc(NC(=O)c8cccc(C(F)(F)F)n8)ccc7n6)CC5)CC4)cccn23)C(=O)N1 [I-28] | > 0.2 µM |
| COc1cc2nn([C@H]3CC[C@H](CN4C[C@H]5C[C@@H]4CN5c4ccn5c(N6CCC(=O)NC6=O)cnc5c4)CC3)cc2cc1NC(=O)c1cccc(C(F)(F)F)n1 [I-56] | 0.01 to 0.1 µM |
| O=C1CCN(c2cnc3cc(C#CCO[C@H]4CCN(C[C@H]5CC[C@H](n6cc(NC(=O)c7cnn8ccc(N9C[C@H]%10C[C@@H]9CO%10)nc78)c(C(F)F)n6)CC5)C[C@H]4F)ccn23)C(=O)N1 [I-71] | < 0.01 µM |
| COc1cc2nn([C@H]3CC[C@H](CN4CCCN(c5cccn6c(N7CCC(=O)NC7=O)cnc56)CC4)CC3)cc2cc1NC(=O)c1cccc(C(F)(F)F)n1 [I-47] | 0.01 to 0.1 µM |
| C[C@@H]1CN(C[C@H]2CC[C@H](n3cc(NC(=O)c4cnn5ccc(N6C[C@H]7C[C@@H]6CO7)nc45)c(C(F)F)n3)CC2)CC[C@H]1OCC#Cc1ccn2c(N3CCC(=O)NC3=O)cnc2c1 [I-64] | < 0.01 µM |
| COc1cc2nn([C@H]3CC[C@H](CN4CCN(c5cccn6c(N7CCC(=O)NC7=O)cnc56)CC4)CC3)cc2cc1NC(=O)c1cccc(C(F)(F)F)n1 [I-69] | < 0.01 µM |
| N#Cc1cc2nn([C@H]3CC[C@H](CN4CCC(c5ccn6c(N7CCC(=O)NC7=O)cnc6c5)CC4)CC3)cc2cc1NC(=O)c1cccc(C(F)(F)F)n1 [I-66] | < 0.01 µM |
| COc1cc2nn([C@H]3CC[C@H](CN4C5CCC4CN(c4ccn6c(N7CCC(=O)NC7=O)cnc6c4)C5)CC3)cc2cc1NC(=O)c1cccc(C(F)(F)F)n1 [I-45] | 0.01 to 0.1 µM |
| COc1cc2nn([C@H]3CC[C@H](CN(C)C4CCN(c5ccn6c(N7CCC(=O)NC7=O)cnc6c5)CC4)CC3)cc2cc1NC(=O)c1cc(F)cc(C(F)(F)F)c1 [I-86] | 0.01 to 0.1 µM |
| CN(C[C@H]1CC[C@H](n2cc3cc(NC(=O)c4cccc(C(F)(F)F)n4)ncc3n2)CC1)C1CCN(c2ccn3c(N4CCC(=O)NC4=O)cnc3c2)CC1 [I-33] | < 0.01 µM |
| COc1cc2nn([C@H]3CC[C@H](CN4C[C@@H]5C[C@H]4CN5c4cccn5c(N6CCC(=O)NC6=O)cnc45)CC3)cc2cc1NC(=O)c1cccc(C(F)(F)F)n1 [I-54] | 0.01 to 0.1 µM |
| O=C1CCN(c2cnc3cc(C#CCO[C@@H]4CCN(C[C@H]5C[C@H](n6cc(NC(=O)c7cnn8ccc(N9C[C@H]%10C[C@@H]9CO%10)nc78)c(C(F)F)n6)C5)C[C@@H]4F)ccn23)C(=O)N1 [I-42] | < 0.01 µM |
